Five molecules from ChEMBL document CHEMBL5537134, “Targeting the pyruvate dehydrogenase complex/pyruvate dehydrogenase kinase (PDC/PDK) axis to discover potent PDK inhibitors through structure-based virtual screening and pharmacological evaluation” (Eur J Med Chem, 2024) can be followed below.

Each structure is given as a SMILES string. Active and inactive are the calls of the source. The calls are words filed in the database; no cut-off is given here.

For series [1], the target named is T1, [Pyruvate dehydrogenase (acetyl-transferring)] kinase isozyme 1, mitochondrial (Homo sapiens, UniProt Q15118). As to the kind of experiment: Inhibition of recombinant full-length human PDK1 (1 to 436 residues) expressed in baculovirus infected Sf9 insect cells using PDHA1 as substrate at 10 uM incubated for 1 hrs in presence of ATP by Kinase-Glo luminescence assay. In general terms: Kinase-Glo reads ATP consumption through a luciferase reaction.

For series [2], the system named is A549. Briefly: Induction of cell cycle arrest in human A549 cells assessed as accumulation of cells at G2 phase at 7.5 uM incubated for 24 hrs by Propidium Iodide staining based flow cytometry analysis (reference value: 13.19 %). The series is classed as functional.
Series [3] relates to A549. As to the kind of experiment: Induction of cell cycle arrest in human A549 cells assessed as accumulation of cells at S phase at 10 uM incubated for 24 hrs by Propidium Iodide staining based flow cytometry analysis (reference value: 36.92 %). The series is classed as functional. (Flow cytometry measures light scatter and fluorescence of single cells or particles in a stream.)

Series [4] is described as follows: Toxicity in Balb/c mouse assessed as pathological abnormality in liver at 50 mg/kg, ip administered for 7 days by hematoxylin and eosin staining based analysis. It counts as organism-based. Particulars: in vivo, 168 h, time 7 day.
Series [5] is described as follows: Toxicity in Balb/c mouse assessed as pathological abnormality in heart at 50 mg/kg, ip administered for 7 days by hematoxylin and eosin staining based analysis. The series is classed as organism-based. Particulars: in vivo, 168 h, time 7 day.
Series [6] deals with A549. As to the kind of experiment: Induction of apoptosis in human A549 cells assessed as apoptotic cells at 5 uM incubated for 48 hrs by Annexin V-FITC/Propidium Iodide staining based flow cytometry analysis relative to control. It counts as functional.
The test system of series [7] is Cell membrane. Briefly: Induction of mitochondrial membrane depolarization in human A549 cells assessed as decrease in lactate formation incubated for 8 hrs by NovaBioprofile Flex analyzer method. The series is classed as cell membranes. The following applies: dose 10-40 µM.
The target of series [8] is [Pyruvate dehydrogenase (acetyl-transferring)] kinase isozyme 2, mitochondrial (Homo sapiens, UniProt Q15119). Briefly: Inhibition of recombinant full length human PDK2 (1 to 407 residues) expressed in baculovirus infected Sf9 cells using PDHA1 as substrate incubated for 1 hrs in presence of ATP by ADP-Glo luminescence assay. A general note: ADP-Glo turns the ADP formed in a reaction into a luminescent signal.

The subject of series [9] is A549. Briefly: Induction of cell cycle arrest in human A549 cells assessed as accumulation of cells at S phase at 5 uM incubated for 24 hrs by Propidium Iodide staining based flow cytometry analysis (reference value: 36.92 %). It counts as functional.
Series [10] can be described thus: Toxicity in Balb/c mouse assessed as death at 50 mg/kg, ip administered for 7 days. It counts as organism-based. Particulars: in vivo, 168 h, time 7 day.
The nature of series [11]: Toxicity in Balb/c mouse assessed as change in body weight at 50 mg/kg, ip administered for 7 days. It counts as organism-based. Particulars: in vivo, 168 h, time 7 day.
For series [12], the system named is Cell membrane. Briefly: Induction of mitochondrial membrane depolarization in human A549 cells assessed as decrease in extracellular acidification by Seahorse XFe96 extracellular flux analyzer method. The following applies: dose 10-40 µM. The series is classed as cell membranes.
Series [13] is described as follows: Toxicity in Balb/c mouse assessed as clinical signs at 50 mg/kg, ip administered for 7 days. The following applies: in vivo, 168 h, time 7 day. The series is classed as organism-based.
For series [14], the system named is A549. As to the kind of experiment: Induction of apoptosis in human A549 cells incubated for 48 hrs by Annexin V-FITC/Propidium Iodide staining based flow cytometry analysis. It counts as functional, cell-based. The following applies: dose 5-20 µM.
The subject of series [15] is A549. As to the kind of experiment: Induction of cell cycle arrest in human A549 cells assessed as accumulation of cells at G2 phase at 5 uM incubated for 24 hrs by Propidium Iodide staining based flow cytometry analysis (reference value: 13.19 %). The series is classed as functional.
Series [16] has as its system A549. As to the kind of experiment: Induction of apoptosis in human A549 cells assessed as apoptotic cells at 10 uM incubated for 48 hrs by Annexin V-FITC/Propidium Iodide staining based flow cytometry analysis relative to control. It counts as functional.
Series [17] is described as follows: Toxicity in Balb/c mouse assessed as pathological abnormality in kidney at 50 mg/kg, ip administered for 7 days by hematoxylin and eosin staining based analysis. It counts as organism-based. The following applies: in vivo, 168 h, time 7 day.
In the next series the test system is BEAS-2B. Briefly: Cytotoxicity against human BEAS-2B cells assessed as reduction in cell viability upto 50 uM incubated for 72 hrs by MTT assay. The series is classed as toxicity, cell-based.
Series [18] has as its system A549. Briefly: Induction of apoptosis in human A549 cells assessed as apoptotic cells at 20 uM incubated for 48 hrs by Annexin V-FITC/Propidium Iodide staining based flow cytometry analysis relative to control. The series is classed as functional.
Series [19] has as its system A549. Briefly: Induction of cell cycle arrest in human A549 cells assessed as accumulation of cells at G2 phase at 10 uM incubated for 24 hrs by Propidium Iodide staining based flow cytometry analysis (reference value: 13.19 %). The series is classed as functional.
The test system of series [20] is A549. As to the kind of experiment: Antiproliferative activity against human A549 cells assessed as reduction in cell viability at 40 uM incubated for 72 hrs by MTT assay. It counts as functional, cell-based.
Series [21] concerns A549. As to the kind of experiment: Induction of apoptosis in human A549 cells at 20 uM incubated for 24 hrs by Annexin V-FITC/Propidium Iodide staining based flow cytometry analysis relative to control. It counts as functional.
Series [22] deals with A549. Briefly: Antiproliferative activity against human A549 cells assessed as reduction in cell viability incubated for 72 hrs under hypoxic condition by MTT assay. The following applies: A549, 72 h.
Series [23] has as its system A549. Briefly: Induction of cell cycle arrest in human A549 cells assessed as accumulation of cells at G1 phase at 10 uM incubated for 24 hrs by Propidium Iodide staining based flow cytometry analysis (reference value: 49.88 %). It counts as functional.
Series [24] deals with A549. As to the kind of experiment: cells. The following applies: Homo sapiens.
Description: Anticancer activity against human A549 cells assessed as inhibition of cell growth incubated for 24 to 72 hrs by IncuCyte Zoom live cell imaging analysis
The subject of series [25] is Cell membrane. Briefly: Induction of mitochondrial membrane depolarization in human A549 cells assessed as increase in JC-1 monomer incubated for 4 hrs by JC-1 staining based flow cytometry analysis. The following applies: dose 5-20 µM. It counts as cell membranes.
Series [26] deals with A549. As to the kind of experiment: Induction of cell cycle arrest in human A549 cells assessed as accumulation of cells at S phase at 7.5 uM incubated for 24 hrs by Propidium Iodide staining based flow cytometry analysis (reference value: 36.92 %). The series is classed as functional.
For series [27], the system named is A549. As to the kind of experiment: Induction of cell cycle arrest in human A549 cells assessed as accumulation of cells at G1 phase at 5 uM incubated for 24 hrs by Propidium Iodide staining based flow cytometry analysis (reference value: 49.88 %). It counts as functional.
Series [28] has as its system A549. Briefly: Induction of cell cycle arrest in human A549 cells assessed as accumulation of cells at G1 phase at 7.5 uM incubated for 24 hrs by Propidium Iodide staining based flow cytometry analysis (reference value: 49.88 %). The series is classed as functional.
Series [29] in a line: Toxicity in Balb/c mouse assessed as pathological abnormality in lung at 50 mg/kg, ip administered for 7 days by hematoxylin and eosin staining based analysis. The following applies: in vivo, 168 h, time 7 day. It counts as organism-based.
In series [30] the test system is Cell membrane. Briefly: Induction of mitochondrial membrane depolarization in human A549 cells assessed as increase in green fluorescence intensity at 5 to 20 uM incubated for 4 hrs by JC-1 staining based laser scanning confocal microscope analysis. It counts as cell membranes. Particulars: dose 5-20 µM.
Series [31] is described as follows: Toxicity in Balb/c mouse assessed as pathological abnormality in spleen at 50 mg/kg, ip administered for 7 days by hematoxylin and eosin staining based analysis. The series is classed as organism-based. Particulars: in vivo, 168 h, time 7 day.
The subject of series [32] is A549. Briefly: Induction of apoptosis in human A549 cells at 20 uM incubated for 12 hrs by Annexin V-FITC/Propidium Iodide staining based flow cytometry analysis relative to control. It counts as functional.
The subject of series [33] is A549. Briefly: Induction of apoptosis in human A549 cells at 20 uM by Annexin V-FITC/Propidium Iodide staining based flow cytometry analysis. The series is classed as functional, cell-based. Particulars: time 12-48 hrs, TDE = time-dependent effect.
Series [34] has as its system A549. Briefly: Anticancer activity against human A549 cells assessed as inhibition of cell growth at 20 uM by IncuCyte Zoom live cell imaging analysis. The series is classed as functional, cell-based. The following applies: time 24-72 hrs, TDE = time-dependent effect.
In series [35] the test system is Cell membrane. Briefly: Induction of mitochondrial membrane depolarization in human A549 cells assessed as increase in oxygen consumption rate by Seahorse XFe96 extracellular flux analyzer method. Particulars: dose 10-40 µM. It counts as cell membranes.
In series [36] the test system is Cell membrane. As to the kind of experiment: Induction of mitochondrial membrane depolarization in human A549 cells assessed as disappearance of red fluorescence at 5 to 20 uM incubated for 4 hrs by TMRM staining based laser scanning confocal microscope analysis. The series is classed as cell membranes. Particulars: dose 5-20 µM.
Series [37] addresses T1, [Pyruvate dehydrogenase (acetyl-transferring)] kinase isozyme 1, mitochondrial. Briefly: Binding affinity to PDK1 (unknown origin) assessed as dissociation constant.
In series [38] the test system is A549. As to the kind of experiment: Anticancer activity against human A549 cells assessed as reduction in cell growth at 20 uM by IncuCyte Zoom live cell imaging analysis. It counts as functional, cell-based.
For series [39], the target named is T1, [Pyruvate dehydrogenase (acetyl-transferring)] kinase isozyme 1, mitochondrial. Briefly: Binding affinity to PDK1 (unknown origin) assessed as dissociation constant in presence of 5-((4-chlorophenyl)sulfonamido)-N-(2-hydroxyethyl)-2,4-dimethylbenzenesulfonamide.
For series [40] the target is unchanged. As to the kind of experiment: Inhibition of recombinant full-length human PDK1 (1 to 436 residues) expressed in baculovirus infected Sf9 insect cells using PDHA1 as substrate incubated for 1 hrs in presence of ATP by Kinase-Glo luminescence assay.
Series [41] concerns A549. As to the kind of experiment: Antiproliferative activity against human A549 cells assessed as reduction in cell viability incubated for 72 hrs by CCK8 assay. The series is classed as functional, cell-based. The following applies: A549, 72 h.
For series [42], the target named is T1, [Pyruvate dehydrogenase (acetyl-transferring)] kinase isozyme 1, mitochondrial. Briefly: Inhibition of 6His-tagged full length PDK1 (unknown origin) expressed in Escherichia coli in presence of ATP by ELISA based kinase activity assay.

T1 sequence (Q15118 whole entry, the tested form may be a part): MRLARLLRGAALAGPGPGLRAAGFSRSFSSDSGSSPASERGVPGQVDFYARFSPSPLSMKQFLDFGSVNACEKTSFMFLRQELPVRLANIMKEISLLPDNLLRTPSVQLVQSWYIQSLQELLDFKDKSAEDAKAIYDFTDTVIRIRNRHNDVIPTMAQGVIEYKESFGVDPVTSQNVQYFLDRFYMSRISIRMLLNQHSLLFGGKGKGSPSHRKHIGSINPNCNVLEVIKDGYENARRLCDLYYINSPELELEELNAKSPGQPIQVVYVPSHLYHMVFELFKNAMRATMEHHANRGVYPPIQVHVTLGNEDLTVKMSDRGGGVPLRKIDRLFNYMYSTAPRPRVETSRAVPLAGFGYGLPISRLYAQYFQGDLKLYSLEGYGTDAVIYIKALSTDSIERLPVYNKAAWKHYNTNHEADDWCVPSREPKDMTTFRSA

Consider `O=C(c1cccc(S(=O)(=O)Nc2cc(Cl)ccc2Cl)c1)N1CCN(CCO)CC1`, for which the inhibition result in series [1] was “Active”.
The IC50 is the concentration at which inhibition is half-maximal. One may read the EC50 as the concentration giving half of the maximal effect. With `Cc1cc(C)c(S(=O)(=O)NCCO)cc1NS(=O)(=O)c1ccc(Cl)cc1`, the Activity with A549 [2] is 7.98%; with A549 [3], 50.66%; in series [4] it was “Non-Toxic”; in [5], “Non-Toxic”; with A549 [6], 8.8%; with Cell membrane [7], “Dose-Dependent Effect”. Besides, the Activity was 32.44% with A549 [9]; “Non-Toxic” in series [10]; “Non-Toxic” in series [11]; “Dose-Dependent Effect” in the series with Cell membrane [12]; “Non-Toxic” in series [13]; “Dose-Dependent Effect” in the series on A549 [14]. Also, the Activity is 12.31% with A549 [15]; 23.8% in the series on A549 [16]; “Non-Toxic” in series [17]; “Non-Toxic” in the series on BEAS-2B; 80.5% in the series on A549 [18]; 1.58% with A549 [19]. Further, the Activity with A549 [21] is 60%; in the series with A549 [23] it was 47.77%; in the series with Cell membrane [25], “Dose-Dependent Effect”; with A549 [26], 42.37%; with A549 [27], 55.25%; with A549 [28] it was 49.65%. Further, the Activity result in series [29] was “Non-Toxic”; in series [31] it was “Non-Toxic”; in the series on A549 [32], 10.8%; with A549 [33], “Tde”; with A549 [34] it was “Tde”; in the series with Cell membrane [35], “Dose-Dependent Effect”. The concentration for half-maximal inhibition (IC50) was 136 nM in [8] and 5670 nM in the series on A549 [22]. Moreover, the outcome in the series with A549 [20], in the series on Cell membrane [30] and with Cell membrane [36] was Active. This molecule also displayed an EC50 in the series on A549 [24] of 10700 nM.
Usually Kd stands for the concentration at which binding is half-saturated. Turning to `CN(C)C(=O)c1ccc(S(=O)(=O)c2ccc(NC(=O)[C@@](C)(O)C(F)(F)F)c(Cl)c2)cc1`, the Activity was 18.03% in the series on A549 [3], 13.47% with A549 [19] and 68.5% in the series with A549 [23]. Moreover, the Kd in series [37] stood at 148 nM; in [39], 8900 nM. Besides, the figures for the IC50 in [8] and in series [40] were 74.5 nM and 32.3 nM, respectively. In addition, the result in the series with A549 [38] was inactive.
Turning to `CC(C)[C@H](NC(=O)N1CCN(C(c2ccc(F)cc2)c2ccc(F)cc2)CC1)C(=O)O`, the outcome with A549 [20] was Active.
Regarding `S=C(SSC(=S)N1CCOCC1)N1CCOCC1`, the IC50 in the series on A549 [41] is below 500 nM. In addition, in [42], the EC50 came out at 49 nM.
